From patent US11254663B2 (BRISTOL-MYERS SQUIBB COMPANY, priority 2019, dated 2022) come the findings set out here.

For this test, the target named is FXR (Homo sapiens (Human), UniProt Q96RI1). The experiment in a line: transient human FXR/Gal4-luciferase reporter assay. Type of test: cell-based. A digest of the protocol: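 HEK293 cells stably carrying a 5×Gal4 response element–firefly luciferase reporter were transiently transfected overnight with a Gal4 DBD–human FXR LBD fusion plasmid. Compound was added in DMSO and cells were incubated overnight at 37 °C, 5% CO2. Activity was read as Steady-Glo luminescence.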
Sequence of FXR (Q96RI1 262-486): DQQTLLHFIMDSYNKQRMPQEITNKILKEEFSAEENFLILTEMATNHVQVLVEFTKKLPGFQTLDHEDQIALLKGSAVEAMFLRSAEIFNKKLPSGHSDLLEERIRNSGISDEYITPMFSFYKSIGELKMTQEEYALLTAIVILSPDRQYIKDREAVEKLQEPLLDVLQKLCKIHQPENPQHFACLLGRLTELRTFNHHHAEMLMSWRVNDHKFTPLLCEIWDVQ
On the technique in general: In a reporter assay the amount or activity of a reporter protein is the signal.

The mark [1] stands for this setting: Gal4-hFXR fusion construct, HEK293 reporter cells, response relative to 8 μM GW-4064.

Read-outs that look alike come from different tables or passages of the source.

As a reminder, the EC50 is the concentration needed to bring the measured effect to its halfway point. Higher therefore signals a less potent agent. `CC(C)c1nc(C23CCC(CN(C(=O)C45CC(F)(C4)C5)c4cccc(-c5cnc(C6CC6)nc5)c4)(CC2)CC3)no1` [Example 434, N-(3-(2-cyclopropylpyrimidin-5-yl)phenyl)-3-fluoro-N-((4-(5-isopropyl-1,2,4-oxadiazol-3-yl)bicyclo[2.2.2]octan-1-yl)methyl)bicyclo[1.1.1]pentane-1-carboxamide]: the EC50 under setting [1] came out at 57 nM.
Still for that read-out and setting: in the case of `CC(C)(C)c1noc(C23CCC(CN(C(=O)C45CC(F)(C4)C5)c4cccc(-c5ccc(NS(=O)(=O)C(F)(F)F)cc5)c4)(CC2)CC3)n1` [Example 372, N-((4-(3-(tert-butyl)-1,2,4-oxadiazol-5-yl)bicyclo[2.2.2]octan-1-yl)methyl)-3-fluoro-N-(4′-((trifluoromethyl)sulfonamido)-[1,1′-biphenyl]-3-yl)bicyclo[1.1.1]pentane-1-carboxamide] it was 131 nM; in that of `Cc1c(-c2cccc(N(CC34CCC(c5nc(C6CC6)no5)(CC3)CC4)C(=O)C34CC(F)(C3)C4)c2)cn2ncnc2c1C` [Example 312, N-((4-(3-cyclopropyl-1,2,4-oxadiazol-5-yl)bicyclo[2.2.2]octan-1-yl)methyl)-N-(3-(7,8-dimethyl-[1,2,4]triazolo[1,5-a]pyridin-6-yl)phenyl)-3-fluorobicyclo[1.1.1]pentane-1-carboxamide], 916 nM.
Still for that read-out and setting: in the case of `CC(C)Oc1ccc(-c2cccc(N(CC34CCC(c5cc(C6(F)CC6)nn5C)(CC3)CC4)C(=O)OC(C)(C)C(F)(F)F)c2)cc1` [Example 655, 1,1,1-trifluoro-2-methylpropan-2-yl ((4-(3-(1-fluorocyclopropyl)-1-methyl-1H-pyrazol-5-yl)bicyclo[2.2.2]octan-1-yl)methyl)(4′-isopropoxy-[1,1′-biphenyl]-3-yl)carbamate] it was 819 nM.
`O=C(C1CC(O)(C(F)(F)F)C1)N(CC12CCC(NS(=O)(=O)C(F)(F)F)(CC1)CC2)c1cccc(-c2ccc(OC(F)F)cc2)c1` (stereo not drawn) [Example 603, (cis)-N-(4′-(difluoromethoxy)-[1,1′-biphenyl]-3-yl)-3-hydroxy-3-(trifluoromethyl)-N-((4-((trifluoromethyl)sulfonamido)bicyclo[2.2.2]octan-1-yl)methyl)cyclobutane-1-carboxamide] registered an EC50 under setting [1] of 1820 nM.
As for `Cc1nc2ccc(-c3cccc(N(CC45CCC(c6cc(C7CC7)nn6C)(CC4)CC5)C(=O)C45CC(F)(C4)C5)c3)cc2s1` [Example 415, N-((4-(3-cyclopropyl-1-methyl-1H-pyrazol-5-yl)bicyclo[2.2.2]octan-1-yl)methyl)-3-fluoro-N-(3-(2-methylbenzo[d]thiazol-6-yl)phenyl)bicyclo[1.1.1]pentane-1-carb oxamide], the EC50 under setting [1] is 125 nM.
Take `CCOc1ccc(-c2cccc(N(CC34CCC(c5noc(C(C)(C)C)n5)(CC3)CC4)C(=O)C34CC(F)(C3)C4)c2)cc1` [Example 439, N-((4-(5-(tert-butyl)-1,2,4-oxadiazol-3-yl)bicyclo[2.2.2]octan-1-yl)methyl)-N-(4′-ethoxy-[1,1′-biphenyl]-3-yl)-3-fluorobicyclo[1.1.1]pentane-1-carboxamide]: the EC50 under setting [1] stood at 70 nM.
Turning to `CC(C)(C)c1nc(C23CCC(CN(c4cccc(-c5ccc(NS(C)(=O)=O)cc5)c4)C(=O)[C@H]4C[C@@](C)(O)C4)(CC2)CC3)no1` [Example 512, (cis)-N-((4-(5-(tert-butyl)-1,2,4-oxadiazol-3-yl)bicyclo[2.2.2]octan-1-yl)methyl)-3-hydroxy-3-methyl-N-(4′-(methylsulfonamido)-[1,1′-biphenyl]-3-yl)cyclobutane-1-carboxamide], under setting [1], the EC50 was determined as 909 nM.
As for `N#CC1(c2ccc(-c3cccc(N(CC45CCC(c6nc(C7CC7)no6)(CC4)CC5)C(=O)C45CC(F)(C4)C5)c3)cc2)CC1` [Example 279, N-(4′-(1-cyanocyclopropyl)-[1,1′-biphenyl]-3-yl)-N-((4-(3-cyclopropyl-1,2,4-oxadiazol-5-yl)bicyclo[2.2.2]octan-1-yl)methyl)-3-fluorobicyclo[1.1.1]pentane-1-carboxamide], the EC50 under setting [1] was found to be 125 nM.
In the case of `CC(C)(O)c1ccc(-c2cccc(N(CC34CCC(c5noc(C(C)(C)F)n5)(CC3)CC4)C(=O)NCCC3(O)CCCC3)c2)cc1` [Example 650, 1-((4-(5-(2-fluoropropan-2-yl)-1,2,4-oxadiazol-3-yl)bicyclo[2.2.2]octan-1-yl)methyl)-3-(2-(1-hydroxycyclopentyl)ethyl)-1-(4′-(2-hydroxypropan-2-yl)-[1,1′-biphenyl]-3-yl)urea], the EC50 worked out at 472 nM.
`CS(=O)(=O)Nc1cccc(-c2cccc(N(CC34CCC(c5nc(C6CC6)no5)(CC3)CC4)C(=O)C34CC(F)(C3)C4)c2)c1` [Example 256, N-((4-(3-cyclopropyl-1,2,4-oxadiazol-5-yl)bicyclo[2.2.2]octan-1-yl)methyl)-3-fluoro-N-(3′-(methylsulfonamido)-[1,1′-biphenyl]-3-yl)bicyclo[1.1.1]pentane-1-carboxamide] came in with an EC50 under setting [1] of 219 nM. This counts as sub-micromolar.
In the case of `Cc1nc2ccc(-c3cccc(N(CC45CCC(c6nc(C7CC7)no6)(CC4)CC5)C(=O)C4CC(F)(F)C4)c3)cc2s1` [Example 554, N-((4-(3-cyclopropyl-1,2,4-oxadiazol-5-yl)bicyclo[2.2.2]octan-1-yl)methyl)-3,3-difluoro-N-(3-(2-methylbenzo[d]thiazol-6-yl)phenyl)cyclobutane-1-carboxamide], a half-maximal effect under setting [1] (EC50) was put at 232 nM. The EC50 values of the last two compounds are within 1.5-fold of each other.
Turning to `CCOc1ncc(-c2cccc(N(CC34CCC(c5noc(C(F)F)n5)(CC3)CC4)C(=O)C34CC(F)(C3)C4)c2)cn1` [Example 459, N-((4-(5-(difluoromethyl)-1,2,4-oxadiazol-3-yl)bicyclo[2.2.2]octan-1-yl)methyl)-N-(3-(2-ethoxypyrimidin-5-yl)phenyl)-3-fluorobicyclo[1.1.1]pentane-1-carboxamide], the EC50 under setting [1] is 192 nM.
Still for that read-out and setting: as for `CC(C)(C)c1noc(C23CCC(CN(C(=O)C45CC(F)(C4)C5)c4cccc(-c5ccc(OC(F)F)cc5)c4)(CC2)CC3)n1` [Example 368, N-((4-(3-(tert-butyl)-1,2,4-oxadiazol-5-yl)bicyclo[2.2.2]octan-1-yl)methyl)-N-(4′-(difluoromethoxy)-[1,1′-biphenyl]-3-yl)-3-fluorobicyclo[1.1.1]pentane-1-carboxamide], the figure is 135 nM; as for `CC(C)(O)c1ccc(-c2cc(N(CC34CCC(c5nc(C6CC6)no5)(CC3)CC4)C(=O)OC(C)(C)C(F)(F)F)ncc2F)cc1F` [Example 618, 1,1,1-trifluoro-2-methylpropan-2-yl((4-(3-cyclopropyl-1,2,4-oxadiazol-5-yl)bicyclo[2.2.2]octan-1-yl)methyl)(5-fluoro-4-(3-fluoro-4-(2-hydroxypropan-2-yl)phenyl)pyridin-2-yl) carbamate], 49 nM.
For the compound `Cn1ncc2cc(C#N)c(-c3cccc(N(CC45CCC(c6nc(C7CC7)no6)(CC4)CC5)C(=O)C45CC(F)(C4)C5)c3)nc21` [Example 313, N-(3-(5-cyano-1-methyl-1H-pyrazolo[3,4-b]pyridin-6-yl)phenyl)-N-((4-(3-cyclopropyl-1,2,4-oxadiazol-5-yl)bicyclo[2.2.2]octan-1-yl)methyl)-3-fluorobicyclo[1.1.1]pentane-1-carboxamide], the EC50 under setting [1] was 194 nM. Against the preceding compound, the EC50 is about 4-fold higher.
On to `CC(C)(O)Cn1cc(-c2cc(N(CC34CCC(c5noc(C(C)(F)F)n5)(CC3)CC4)C(=O)NC34CC(C3)C4)ccc2F)cn1` [Example 633, 3-(bicyclo[1.1.1]pentan-1-yl)-1-((4-(5-(1,1-difluoroethyl)-1,2,4-oxadiazol-3-yl)bicyclo[2.2.2]octan-1-yl)methyl)-1-(4-fluoro-3-(1-(2-hydroxy-2-methylpropyl)-1H-pyrazol-4-yl)phenyl)urea], for which the EC50 under setting [1] is 32 nM.
As to `CCc1ccc(-c2cccc(N(CC34CCC(c5noc(C(C)(C)C)n5)(CC3)CC4)C(=O)C34CC(F)(C3)C4)c2)cc1` [Example 456, N-((4-(5-(tert-butyl)-1,2,4-oxadiazol-3-yl)bicyclo[2.2.2]octan-1-yl)methyl)-N-(4′-ethyl-[1,1′-biphenyl]-3-yl)-3-fluorobicyclo[1.1.1]pentane-1-carboxamide], the EC50 under setting [1] was 106 nM.
Compound `CS(=O)(=O)Nc1ccc(-c2cccc(N(CC34CCC(c5noc(C(F)F)n5)(CC3)CC4)C(=O)C34CC(F)(C3)C4)c2)cc1` [Example 460, N-((4-(5-(difluoromethyl)-1,2,4-oxadiazol-3-yl)bicyclo[2.2.2]octan-1-yl)methyl)-3-fluoro-N-(4′-(methylsulfonamido)-[1,1′-biphenyl]-3-yl)bicyclo[1.1.1]pentane-1-carboxamide] showed a 50% effective concentration (EC50) of 338 nM.
In the case of `CCOc1ncc(-c2cccc(N(CC34CCC(c5cc(C6CC6)nn5C)(CC3)CC4)C(=O)C34CC(F)(C3)C4)c2)cn1` [Example 413, N-((4-(3-cyclopropyl-1-methyl-1H-pyrazol-5-yl)bicyclo[2.2.2]octan-1-yl)methyl)-N-(3-(2-ethoxypyrimidin-5-yl)phenyl)-3-fluorobicyclo[1.1.1]pentane-1-carboxamide], the EC50 under setting [1] turned out to be 192 nM.
On to `COc1cc(-c2cccc(N(CC34CCC(c5nc(C6CC6)no5)(CC3)CC4)C(=O)C34CC(F)(C3)C4)c2)cn2ncnc12` [Example 264, N-((4-(3-cyclopropyl-1,2,4-oxadiazol-5-yl)bicyclo[2.2.2]octan-1-yl)methyl)-3-fluoro-N-(3-(8-methoxy-[1,2,4]triazolo[1,5-a]pyridin-6-yl)phenyl)bicyclo[1.1.1]pentane-1-carboxamide], for which the EC50 under setting [1] amounted to 1500 nM.
`CCOc1ccc(-c2cccc(N(CC34CCC(c5nc(C6CC6)no5)(CC3)CC4)C(=O)C34CC(F)(C3)C4)c2)nn1` [Example 283, N-((4-(3-cyclopropyl-1,2,4-oxadiazol-5-yl)bicyclo[2.2.2]octan-1-yl)methyl)-N-(3-(6-ethoxypyridazin-3-yl)phenyl)-3-fluorobicyclo[1.1.1]pentane-1-carboxamide] yielded an EC50 under setting [1] of 234 nM.
